{
  "source": "patent US8784910B2",
  "about": "“Antimicrobial compositions” (Lonza Inc., priority 2002, dated 2014)",
  "assay_type_in_all_cases": "cell-based",
  "key": {"[1]": {"test_system": "S. aureus, P. aeruginosa, and E. coli", "experiment": "Mixed bacterial challenge of preserved GMS cream (Example 6)", "method": "Each anionic shampoo sample in FIGS. 1-3 were tested as follows. […] Each stab was then washed with 3 mL of sterile 0.85% saline solution. The washes of the 3 stabs were pooled together to form an organism mixture. The absorbance of the organism mixture at 530 nm was adjusted to about 1.00 by adding saline. The spectrometer was calibrated with a saline blank. A 5 mL aliquot of the organism mixture was mixed together to produce the standardized mixed bacterial solution. Then, 40 g of each shampoo sample was inoculated with 0.2 mL of the standardized mixed bacterial solution and mixed. 1 g of the mixture was added to a sterile 20×150 mm screw cap test tube. 9 mL of sterile D/E neutralizer broth was added to the test tube and mixed to form a 10^−1 dilution. Serial dilutions were prepared through to a 10^−6 dilution with phosphate buffered water. The serial dilutions were plated onto Tryptic Soy Agar and incubated for 2 days at about 35 EC. Bacteria counts were performed after 21 days. Each cream sample in Table 5 below was tested by the procedure described in Example 1. A glyceryl monostearate (GMS) cream as described in Table 3 below was prepared as follows. The polyoxyethylene glyceryl monostearate, glyceryl monostearate, cetearyl alcohol, and myristyl propionate were mixed and heated to 60 EC in a first container. The glycerin and sterile deionized water were mixed and heated to 60 EC in a second container. The solution in the first container was poured into the second container. The second container was maintained at 60 EC for 10 minutes. The solution in the second container was allowed to cool. The pH of the solution was adjusted to pH 7 with sodium hydroxide to yield the GMS cream. The cream samples shown in Table 6 below were prepared by mixing the appropriate amounts of the preservatives and the GMS cream and heating the mixture to 50 EC for 10-15 minutes."}, "fungi": {"test_system": "fungi", "experiment": "Fungal plate count of preserved GMS cream (Example 6)", "method": "Each cream sample in Table 5 below was tested by the procedure described in Example 1. A glyceryl monostearate (GMS) cream as described in Table 3 below was prepared as follows. The polyoxyethylene glyceryl monostearate, glyceryl monostearate, cetearyl alcohol, and myristyl propionate were mixed and heated to 60 EC in a first container. The glycerin and sterile deionized water were mixed and heated to 60 EC in a second container. The solution in the first container was poured into the second container. The second container was maintained at 60 EC for 10 minutes. The solution in the second container was allowed to cool. The pH of the solution was adjusted to pH 7 with sodium hydroxide to yield the GMS cream. The cream samples shown in Table 7 below were prepared by mixing the appropriate amounts of the preservatives and the GMS cream and heating the mixture to 50 EC for 10-15 minutes."}, "[2]": {"test_system": "S. aureus (ATCC #6538), P. aeruginosa (ATCC #9027), and E. coli (ATCC #8739)", "experiment": "Mixed bacterial challenge of preserved anionic protein shampoo (Examples 4 and 7)", "conditions": "for Qb: concentration alone required for 100% retardation of the bacteria", "method": "Each anionic shampoo sample in Table 3 below was tested as follows. A standardized mixed bacterial solution was prepared according to the following procedure. 3 agar stabs of S. aureus (ATCC #6538), P. aeruginosa (ATCC #9027), and E. coli (ATCC #8739) were separately incubated at about 35 EC for about 24 hours. Each stab was then washed with 3 mL of sterile 0.85% saline solution. The washes of the 3 stabs were pooled together to form an organism mixture. The absorbance of the organism mixture at 530 nm was adjusted to about 1.00 by adding saline. The spectrometer was calibrated with a saline blank. A 5 mL aliquot of the organism mixture was mixed together to produce the standardized mixed bacterial solution. Then, 40 g of each shampoo sample was inoculated with 0.2 mL of the standardized mixed bacterial solution and mixed. 1 g of the mixture was added to a sterile 20×150 mm screw cap test tube.\n9 mL of sterile D/E neutralizer broth was added to the test tube and mixed to form a 10^−1 dilution. Serial dilutions were prepared through to a 10^−6 dilution with phosphate buffered water. The serial dilutions were plated onto Tryptic Soy Agar and incubated for 2 days at about 35 EC. Bacteria counts were performed after 0, 7, and 14 days.\nThe anionic protein shampoo composition was comprised of 35% by weight of sodium lauryl ether sulfate; 25% by weight of triethanolamine lauryl sulfate; 3% by weight coconut diethanolamide (cocamide DEA); 1% by weight of hydrolyzed collagen, available as Polypro 5000™ from Hormel Foods of Austin, Minn.; and 36% by weight of deionized water.\nThe cinnamaldehyde and other preservative containing samples were prepared by mixing the appropriate amounts of the preservatives and the aforementioned anionic protein shampoo composition and heating the mixture to about 50 EC for about 15 minutes.\nSynergism for the cinnamaldehyde/Glydant 2000™ solutions in Table 8 against S. aureus, P. aeruginosa, and E. coli was calculated by the method described in C. E. Kull et al., A Mixtures of Quaternary Ammonium Compounds and Long-chain Fatty Acids as Antifungal Agents@, Applied Microbiology, 9:538-541 (1961). The synergism value (QA/Qa+QB/Qb) in Table 7 was determined. […] Qa is the concentration of cinnamaldehyde alone (in percent by weight) required to yield 100% retardation of the bacteria. QB is the concentration of Glydant 2000™ (in percent by weight) in the mixture, which yielded 100% retardation of the bacteria. Qb is the concentration of Glydant 2000™ alone (in percent by weight) required to yield 100% retardation of the bacteria.\nWhen the value of (QA/Qa+QB/Qb) is less than one, the mixture is synergistic. Values for (QA/Qa+QB/Qb) of 1 and greater than 1, represent an additive effect and an antagonistic effect, respectively."}},
  "data": [
    {"smiles": "O=CC=Cc1ccccc1", "note": "[Cinnamaldehyde, cinnamaldehyde]", "values": [
      {"measurement": "S. aureus, P. aeruginosa, and E. coli Day 0", "setting": "[1]; 0.10% in GMS cream pH 7, Day 0", "result": "3.0 × 10^7 cfu/g"},
      {"measurement": "S. aureus, P. aeruginosa, and E. coli Day 7", "setting": "[1]; 0.10% in GMS cream pH 7, Day 7", "result": "4.0 × 10^4 cfu/g"},
      {"measurement": "S. aureus, P. aeruginosa, and E. coli Day 14", "setting": "[1]; 0.10% in GMS cream pH 7, Day 14", "result": "9.3 × 10^5 cfu/g"},
      {"measurement": "S. aureus, P. aeruginosa, and E. coli Day 0", "setting": "[1]; 0.25% in GMS cream pH 7, Day 0", "result": "3.0 × 10^7 cfu/g"},
      {"measurement": "S. aureus, P. aeruginosa, and E. coli Day 7", "setting": "[1]; 0.25% in GMS cream pH 7, Day 7", "result": "<10", "unit": "cfu/g"},
      {"measurement": "S. aureus, P. aeruginosa, and E. coli Day 14", "setting": "[1]; 0.25% in GMS cream pH 7, Day 14", "result": "<10", "unit": "cfu/g"},
      {"measurement": "Fungal Plate Count Day 0", "setting": "fungi; 0.10% in GMS cream", "result": "1.0 × 10^5 cfu/g"},
      {"measurement": "Fungal Plate Count Day 7", "setting": "fungi; 0.10% in GMS cream", "result": "<10", "unit": "cfu/g"},
      {"measurement": "Fungal Plate Count Day 14", "setting": "fungi; 0.10% in GMS cream", "result": "<10", "unit": "cfu/g"},
      {"measurement": "Fungal Plate Count Day 0", "setting": "fungi; 0.25% in GMS cream", "result": "1.0 × 10^5 cfu/g"},
      {"measurement": "Fungal Plate Count Day 7", "setting": "fungi; 0.25% in GMS cream", "result": "<10", "unit": "cfu/g"},
      {"measurement": "Fungal Plate Count Day 14", "setting": "fungi; 0.25% in GMS cream", "result": "<10", "unit": "cfu/g"},
      {"measurement": "S. aureus, P. aeruginosa, and E. coli Day 0", "setting": "[2]; 0.05% in shampoo, Day 0, Example 7 Table 8", "result": "3.0 × 10^6 cfu/g"},
      {"measurement": "S. aureus, P. aeruginosa, and E. coli Day 7", "setting": "[2]; 0.05% in shampoo, Day 7, Example 7 Table 8", "result": "6.5 × 10^6 cfu/g"},
      {"measurement": "S. aureus, P. aeruginosa, and E. coli Day 14", "setting": "[2]; 0.05% in shampoo, Day 14, Example 7 Table 8", "result": "1.0 × 10^7 cfu/g"},
      {"measurement": "S. aureus, P. aeruginosa, and E. coli Day 0", "setting": "[2]; 0.10% by weight in shampoo, Day 0, Table 3", "result": "3.0 × 10^7 cfu/g"},
      {"measurement": "S. aureus, P. aeruginosa, and E. coli Day 7", "setting": "[2]; 0.10% by weight in shampoo, Day 7, Table 3", "result": "1.0 × 10^1 cfu/g"},
      {"measurement": "S. aureus, P. aeruginosa, and E. coli Day 14", "setting": "[2]; 0.10% by weight in shampoo, Day 14, Table 3", "result": "<10", "unit": "cfu/g"},
      {"measurement": "S. aureus, P. aeruginosa, and E. coli Day 0", "setting": "[2]; 0.10% in shampoo, Day 0, Example 7 Table 8", "result": "3.0 × 10^6 cfu/g"},
      {"measurement": "S. aureus, P. aeruginosa, and E. coli Day 7", "setting": "[2]; 0.10% in shampoo, Day 7, Example 7 Table 8", "result": "1.0 × 10^1 cfu/g"},
      {"measurement": "S. aureus, P. aeruginosa, and E. coli Day 14", "setting": "[2]; 0.10% in shampoo, Day 14, Example 7 Table 8", "result": "<10", "unit": "cfu/g"},
      {"measurement": "S. aureus, P. aeruginosa, and E. coli Day 0", "setting": "[2]; 0.20% by weight in shampoo, Day 0, Table 3", "result": "3.0 × 10^7 cfu/g"},
      {"measurement": "S. aureus, P. aeruginosa, and E. coli Day 7", "setting": "[2]; 0.20% by weight in shampoo, Day 7, Table 3", "result": "<10", "unit": "cfu/g"},
      {"measurement": "S. aureus, P. aeruginosa, and E. coli Day 14", "setting": "[2]; 0.20% by weight in shampoo, Day 14, Table 3", "result": "<10", "unit": "cfu/g"},
      {"measurement": "S. aureus, P. aeruginosa, and E. coli Day 0", "setting": "[2]; 0.25% by weight in shampoo, Day 0, Table 3", "result": "3.0 × 10^7 cfu/g"},
      {"measurement": "S. aureus, P. aeruginosa, and E. coli Day 7", "setting": "[2]; 0.25% by weight in shampoo, Day 7, Table 3", "result": "<10", "unit": "cfu/g"},
      {"measurement": "S. aureus, P. aeruginosa, and E. coli Day 14", "setting": "[2]; 0.25% by weight in shampoo, Day 14, Table 3", "result": "<10", "unit": "cfu/g"},
      {"measurement": "Qb", "setting": "[2]; For Day 7", "result": 0.1, "unit": "%"},
      {"measurement": "Qb", "setting": "[2]; For Day 14", "result": 0.05, "unit": "%"}
    ]}
  ]
}
